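Grown in 96-well plates, cells were treated for 48 hours with each compound at five concentrations. Insufficient inhibition: endpoint recorded as highest concentration tested. GI50: concentration for 50% inhibition of growth. TGI: total growth inhibition.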

Common to all, as to assay: NCI tumour cell line growth inhibition, 48 h
Assay [1] has as its system HCT-116 colon.
Assay [2] relates to M14 melanoma.
Assay [3] has as its system SN12C renal.
The test system of assay [4] is LOX IMVI melanoma.
For assay [5], the system named is UACC-62 melanoma.
In assay [6] the test system is RPMI-8226 leukemia.
The test system of assay [7] is A549 NSCLC.
Assay [8] has as its system SK-OV-3 ovarian.
The subject of assay [9] is SF-295 CNS.
The test system of assay [10] is OVCAR-3 ovarian.

As to `COC(=O)Oc1nn(C(=O)OC)c(=O)c2ccccc12` (tested in a mixture with another compound), the TGI in assay [1], in assay [2], in assay [3], in assay [4], in assay [5] and in assay [6] was over 100 µM in each case. Moreover, the TGI in assay [7], in assay [8], in assay [9] and in assay [10] was over 100 µM throughout.

Take `Nc1nccc(C#Cc2cncnc2Nc2ccc(OCc3cccc(F)c3)c(Cl)c2)n1`: the GI50 in [1] is 3.48 µM; in assay [2], 4.51 µM; in assay [3] it was 3.22 µM; in [4], 1.72 µM; in assay [5] it was 4.09 µM; in [6] it was 5.62 µM. For the same molecule, the GI50 in [7] is 5.99 µM; in assay [8], 7.22 µM; in [9], 11.7 µM; in [10], 3.83 µM. The TGI in assay [1] came to 7.43 µM; in assay [2], 9.43 µM; in assay [3], 9.98 µM; in [4], 6.01 µM; in [5] it was 7.68 µM; in [6] it was 16.9 µM. Further, the TGI in assay [7] was over 15.6 µM; in assay [8] it was over 22.5 µM; in [9] it was over 25 µM; in assay [10] it was 7.18 µM.

Turning to `CN(C)c1ccc(N=C(C#N)c2nc(N)nc(N3CCOCC3)n2)cc1`, the GI50 was over 100 µM in assay [2]; 28.8 µM in assay [3]; 22.1 µM in [4]; 46.3 µM in [5]; 74.3 µM in [6]; 38.8 µM in [7]. Also, the values for the GI50 in assay [8], in assay [9] and in assay [10] were 66.2 µM, 15.9 µM and 34.6 µM, respectively. For the same molecule, the TGI was over 100 µM in assay [2]; 98.5 µM in [3]; 53.5 µM in [4]; over 100 µM in assay [5]; over 100 µM in [6]; over 100 µM in assay [7]. Further, the TGI is over 100 µM in assay [8], 31.3 µM in assay [9] and over 100 µM in assay [10].

`Cc1ccc(S(=O)(=O)OC(C=O)C(O)C(O)COC(c2ccccc2)(c2ccccc2)c2ccccc2)cc1` (configuration not stated): the TGI in assay [1] was 30.5 µM; in [2], 30.1 µM; in assay [3] it was 28.9 µM; in assay [4], 35.2 µM; in assay [5], 28.9 µM; in [6], 36.9 µM. Further, the TGI in assay [7] was 33.3 µM; in assay [8], 28.4 µM; in [9], 24.8 µM; in assay [10], 28.1 µM.

Take `CCOC(=O)/C(=C/c1c(-c2ccccc2)[nH]c2ccccc12)C(=O)c1ccc(Cl)cc1`: the GI50 in assay [1] was 2.76 µM; in [2] it was 3.07 µM; in [3], 3.35 µM; in assay [4] it was 3.64 µM; in assay [5], 3.27 µM; in assay [6] it was 2.92 µM. For the same molecule, the GI50 is 4.61 µM in assay [7], 4.38 µM in assay [8], 4.2 µM in assay [9] and 3.35 µM in assay [10]. Besides, the TGI in assay [1] was over 100 µM; in assay [2], over 100 µM; in [3] it was over 100 µM; in assay [4], over 100 µM; in assay [5], 37.1 µM; in [6], over 100 µM. Besides, the TGI in assay [7], in assay [8], in [9] and in [10] was over 100 µM throughout.

Consider `CC(=O)[CH-]C(=O)c1ccccc1.CC(=O)[CH-]C(=O)c1ccccc1.[O-]Cc1cccs1.[O-]Cc1cccs1.[Ti+4]`, for which the GI50 is 33 µM in assay [1]; 21.6 µM in [2]; 36.8 µM in assay [3]; 18.1 µM in [4]; 18 µM in assay [5]; 27.1 µM in assay [6]. Also, the GI50 is 97.9 µM in assay [7], over 100 µM in assay [8], 10.6 µM in [9] and over 100 µM in [10]. In addition, the TGI in [1] is over 100 µM; in assay [2], over 100 µM; in assay [3] it was over 100 µM; in assay [4] it was 58 µM; in assay [5] it was over 100 µM; in [6] it was 71.3 µM. Moreover, the TGI in [7] is over 100 µM; in assay [8], over 100 µM; in assay [9], 71.9 µM; in [10], over 100 µM.

As to `S=c1nc(/C=C/c2ccc(Cl)c(Cl)c2)[nH][nH]1`, the TGI in [1], in assay [2], in assay [3], in [4], in assay [5] and in assay [6] was over 100 µM each time. The TGI in assay [7], in assay [8], in assay [9] and in assay [10] was over 100 µM throughout. The GI50 in [2] was 94.7 µM; in [6] it was 51.4 µM.

Turning to `Clc1ccc(C2=NN(c3ccccc3)C3c4cc(Br)ccc4OCC23)cc1` (configuration not stated), the TGI in assay [1], in [4], in assay [6], in assay [7], in assay [8] and in assay [9] was over 100 µM throughout. Further, the TGI in [10] was over 100 µM.

As for `CC(=O)NNc1nc(C)c(C(/C=C/c2ccc3c(c2)OCO3)=N/NC(=O)c2ccncc2)s1`, the TGI in [1], in [2], in [3], in [4], in assay [5] and in [6] was over 100 µM in each case. For the same molecule, the TGI in assay [7], in assay [8], in [9] and in assay [10] was over 100 µM each time.

Source of the values: PubChem BioAssay (NCI).
